Drawing on US9963496B2, “Stable glucagon analogues and use for treatment of hypoglycaemia” (Novo Nordisk A/S, priority 2014, dated 2018), this text covers IC50 and recovery for four compounds.

Series [1] deals with T1, human glucagon receptor (Homo sapiens, UniProt P47871).
T1 construct: expressed in transfected cells; host or cells: BHK cells, clone BHK hGCGR A3*25; isolated membranes
The series can be described thus: Assay (II)(b): glucagon receptor binding, 125I-glucagon displacement on isolated membranes (SPA). The settings on record: displacement of 125I-glucagon, membranes of BHK cells with human glucagon receptor, 2 h at 25° C.; read-out: IC50 hGlucagonR. The protocol: (b) Glucagon Receptor Binding
The purpose of this assay was to test the in vitro receptor binding activity of the glucagon derivatives of the invention. The receptor binding activity is a measure of affinity of a derivative for the human glucagon receptor.
The receptor binding of each compound to the human glucagon receptor was measured in a displacement binding assay. In this type of assay a labelled ligand (in this case 125I-glucagon) is bound to the receptor. Each derivative is added in a series of concentrations to isolated membranes containing the human glucagon receptor and displacement of the labelled ligand is monitored. The receptor binding is reported as the concentration at which half of the labelled ligand is displaced from the receptor, the IC50 value.
HME buffer consisted of 25 mM HEPES, 2 mM MgCl2 and 1 mM EDTA, and pH was adjusted to 7.4. Binding buffer consisted of 50 mM HEPES supplemented with 5 mM MgCl2, 1 mM CaCl2, 0.02% Tween 20 and 0.1% Ovalbumin, and pH was adjusted to 7.4.
The cells used in this assay (clone BHK hGCGR A3*25) were BHK cells stable transfected with an expression plasmid containing the cDNA encoding the human glucagon receptor.
The cells were grown at 5% CO2 in DMEM, 10% fetal calf serum, 1% Pen/Strep (Penicillin/Streptomycin) and 1.0 mg/mL of the selection marker G418. To make a membrane preparation the cells were grown to approximately 80% confluence. The cells were washed twice in phosphate-buffered saline and harvested. The cells were pelleted using a brief centrifugation and the cell pellet was kept on ice. The cells were lysed by adding approx. 5 mL HME buffer, mix by pipetting and snap freeze in liquid nitrogen. The cell lysate was quickly thawed and HME buffer added to 10 mL. The cell pellet was homogenised with an ULTRA-THURRAX dispersing instrument for 20-30 seconds. The homogenate was centrifuged at 20,000×G, 4° C. for 10 minutes. The pellet was resuspended (homogenised) in 1-2 mL HME buffer. The protein concentration was determined. The membranes were aliquoted and snap frozen in liquid nitrogen and stored at minus 80° C.
• 1. For the receptor binding assay 50 μl of the assay buffer was added to each well of an assay plate. • 2. Test compounds were serially diluted to give the following concentrations: 8×10 EE-7 M, 8×10 EE-8 M, 8×10 EE-9 M, 8×10 EE-10 M, 8×10 EE-11 M, 8×10 EE-12 M and 8×10 EE-13 M. Twenty-five μl were added to appropriate wells in the assay plate. • 3. Cell membrane aliquots were thawed and diluted to their working concentration. Fifty μl were added to each well in the assay plate. • 4. WGA SPA beads were suspended in assay buffer at 20 mg/mL. The suspension was diluted to 10 mg/mL in assay buffer just prior to addition to the assay plate. Fifty μl were added to each well in the assay plate. • 5. The incubation was started by adding 25 μl of 480 pM solution of [125I]-glucagon to each well of the assay plate. A 25 μl aliquot was reserved for measuring total counts/well. • 6. The assay plate was incubated for 2 h at 25° C. • 7. The assay plate was centrifuged for 10 min at 1500 rpm. • 8. The assay plate was read in a Packard TopCount NXT instrument. Calculations
The data from the TopCount instrument were transferred to GraphPad Prism software. The software averaged the values for the replicates and performed a non-linear regression.

Series [2] in a line: physchem. The settings on record: pH 7.5. It is filed as physicochemical. The procedure, abridged: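 Peptide at 250 μM in 10 mM HEPES pH 7.5 with 1 μM Thioflavin T, incubated at 37° C with 960 rpm orbital shaking. ThT fluorescence (ex 444/em 485 nm) read every 20 min; lag-time (t0−2τ) and kapp (1/τ) from curve fit. Recovery is post-assay supernatant peptide by RP-HPLC as % of initial.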

SMILES strings stand for the structures. *1 amine or outer side, *2 acyl side, *3 side chain or, on linkers, in order; H or OH if unused. Where a SMILES comes first, the peptide text is derived from it. Side-chain parts run from the residue outwards. [ ]: non-standard residue; d: D form. The star is where a group is joined. γGlu = O=C(O)[C@H](CCC(=O)[*:2])N[*:1]; Desaminohistidyl = O=C(CCc1c[nH]cn1)*; Aib = CC(C)(N)C(=O)O

T1 sequence (P47871 26-477): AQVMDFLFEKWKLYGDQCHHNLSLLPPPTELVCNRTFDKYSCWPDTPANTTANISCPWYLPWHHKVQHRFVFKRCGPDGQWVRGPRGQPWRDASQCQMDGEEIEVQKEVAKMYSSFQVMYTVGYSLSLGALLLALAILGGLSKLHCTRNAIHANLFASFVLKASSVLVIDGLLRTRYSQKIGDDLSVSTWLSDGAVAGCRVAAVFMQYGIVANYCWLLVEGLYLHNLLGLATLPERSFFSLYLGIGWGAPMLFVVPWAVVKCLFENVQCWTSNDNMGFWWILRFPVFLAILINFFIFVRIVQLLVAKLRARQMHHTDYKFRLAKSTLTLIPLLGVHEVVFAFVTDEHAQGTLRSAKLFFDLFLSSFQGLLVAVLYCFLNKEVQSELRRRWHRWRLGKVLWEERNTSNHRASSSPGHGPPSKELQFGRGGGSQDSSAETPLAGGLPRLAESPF

For `CC(=O)N[C@@H](CCC(=O)N[C@@H](CCC(=O)N[C@@H](CCC(=O)N[C@@H](CCC(=O)NCCCC[C@H](NC(=O)[C@@H](NC(=O)[C@H](Cc1ccccc1)NC(=O)[C@H](CC(=O)O)NC(=O)[C@H](CCC(N)=O)NC(=O)[C@H](C)NC(=O)[C@H](CCCNC(=N)N)NC(=O)[C@H](CCCNC(=N)N)NC(=O)[C@H](CC(C)C)NC(=O)[C@H](CC(=O)O)NC(=O)[C@H](CC(C)C)NC(=O)[C@H](Cc1ccc(O)cc1)NC(=O)[C@H](CCCCN)NC(=O)[C@H](CO)NC(=O)[C@H](Cc1ccc(O)cc1)NC(=O)[C@H](CC(=O)O)NC(=O)[C@H](CO)NC(=O)[C@@H](NC(=O)[C@H](Cc1ccccc1)NC(=O)[C@@H](NC(=O)CNC(=O)[C@H](Cc1c[nH]cn1)NC(=O)C(C)(C)NC(=O)CCc1c[nH]cn1)[C@@H](C)O)[C@@H](C)O)C(C)C)C(=O)N[C@@H](Cc1c[nH]c2ccccc12)C(=O)N[C@@H](CC(C)C)C(=O)N[C@@H](CC(C)C)C(=O)N[C@@H](CO)C(=O)N[C@H](C(=O)O)[C@@H](C)O)C(=O)O)C(=O)O)C(=O)O)C(=O)O` [Example 1, N^ϵ24-[(4S)-4-[[(4S)-4-[[(4S)-4-[[(4S)-4-acetamido-4-carboxybutanoyl]amino]-4-carboxybutanoyl]amino]-4-carboxybutanoyl]amino]-4-carboxybutanoyl]-[Imp1, Aib2, His3, Leu16, Lys24, Leu27, Ser28]-Glucagon] (Desaminohistidyl-[Aib]HGTFTSDYSKYLDLRRAQDFVK([γGlu-γGlu-γGlu-γGlu-Ac])WLLST-OH), the half-inhibitory concentration (IC50) in series [1] came out at 0.2 nM. This compound also returned a recovery at 250 μM in series [2] of 101%.

As for `CC(=O)N[C@@H](CCC(=O)N[C@@H](CCC(=O)N[C@@H](CCC(=O)N[C@@H](CCC(=O)NCCCC[C@H](NC(=O)[C@H](CC(C)C)NC(=O)[C@H](CC(C)C)NC(=O)[C@H](Cc1c[nH]c2ccccc12)NC(=O)[C@H](C)NC(=O)[C@@H](NC(=O)[C@H](Cc1ccccc1)NC(=O)[C@H](CC(=O)O)NC(=O)[C@H](CCC(N)=O)NC(=O)[C@H](C)NC(=O)[C@H](CCCNC(=N)N)NC(=O)[C@H](CCCNC(=N)N)NC(=O)[C@H](CO)NC(=O)[C@H](CCC(=O)O)NC(=O)[C@H](CC(C)C)NC(=O)[C@H](Cc1ccc(O)cc1)NC(=O)[C@H](CCCCN)NC(=O)[C@H](CO)NC(=O)[C@H](Cc1ccc(O)cc1)NC(=O)[C@H](CC(=O)O)NC(=O)[C@H](CO)NC(=O)[C@@H](NC(=O)[C@H](Cc1ccccc1)NC(=O)[C@@H](NC(=O)CNC(=O)[C@H](Cc1c[nH]cn1)NC(=O)C(C)(C)NC(=O)CCc1c[nH]cn1)[C@@H](C)O)[C@@H](C)O)C(C)C)C(=O)N[C@H](C(=O)O)[C@@H](C)O)C(=O)O)C(=O)O)C(=O)O)C(=O)O` [Example 4, N^ϵ28-[(4S)-4-[[(4S)-4-[[(4S)-4-[[(4S)-4-acetamido-4-carboxybutanoyl]amino]-4-carboxybutanoyl]amino]-4-carboxybutanoyl]amino]-4-carboxybutanoyl]-[Imp1, Aib2, His3, Glu15, Ala24, Leu27, Lys28]-Glucagon] (Desaminohistidyl-[Aib]HGTFTSDYSKYLESRRAQDFVAWLLK([γGlu-γGlu-γGlu-γGlu-Ac])T-OH), the IC50 in series [1] was determined as 1.8 nM. The same compound returned a recovery at 250 μM in series [2] of 100%.

As to `CC(=O)N[C@@H](CCC(=O)N[C@@H](CCC(=O)N[C@@H](CCC(=O)N[C@@H](CCC(=O)NCCCC[C@H](NC(=O)[C@@H](NC(=O)[C@H](Cc1ccccc1)NC(=O)[C@H](CCC(=O)O)NC(=O)[C@H](CCC(N)=O)NC(=O)[C@H](C)NC(=O)[C@H](CCCNC(=N)N)NC(=O)[C@H](CCCNC(=N)N)NC(=O)[C@H](CC(C)C)NC(=O)[C@H](CC(=O)O)NC(=O)[C@H](CC(C)C)NC(=O)[C@H](Cc1ccc(O)cc1)NC(=O)[C@H](CCCCN)NC(=O)[C@H](CO)NC(=O)[C@H](Cc1ccc(O)cc1)NC(=O)[C@H](CC(=O)O)NC(=O)[C@H](CO)NC(=O)[C@@H](NC(=O)[C@H](Cc1ccccc1)NC(=O)[C@@H](NC(=O)CNC(=O)[C@H](Cc1c[nH]cn1)NC(=O)[C@H](CO)NC(=O)CCc1c[nH]cn1)[C@@H](C)O)[C@@H](C)O)C(C)C)C(=O)N[C@@H](Cc1c[nH]c2ccccc12)C(=O)N[C@@H](CC(C)C)C(=O)N[C@@H](CC(C)C)C(=O)N[C@@H](CO)C(=O)N[C@H](C(=O)O)[C@@H](C)O)C(=O)O)C(=O)O)C(=O)O)C(=O)O` [Example 8, N^ϵ24-[(4S)-4-[[(4S)-4-[[(4S)-4-[[(4S)-4-acetamido-4-carboxybutanoyl]amino]-4-carboxybutanoyl]amino]-4-carboxybutanoyl]amino]-4-carboxybutanoyl]-[Imp1, His3, Leu16, Glu21, Lys24, Leu27, Ser28]-Glucagon] (Desaminohistidyl-SHGTFTSDYSKYLDLRRAQEFVK([γGlu-γGlu-γGlu-γGlu-Ac])WLLST-OH), in series [1], the IC50 came out at 0.2 nM. This compound showed a recovery at 250 μM in series [2] of 103%.

Turning to `CC(=O)N[C@@H](CCC(=O)N[C@@H](CCC(=O)N[C@@H](CCC(=O)N[C@@H](CCC(=O)NCCCC[C@H](NC(=O)[C@@H](NC(=O)[C@H](Cc1ccccc1)NC(=O)[C@H](CC(=O)O)NC(=O)[C@H](CCC(N)=O)NC(=O)[C@H](C)NC(=O)[C@H](CCCNC(=N)N)NC(=O)[C@H](CCCNC(=N)N)NC(=O)[C@@H](NC(=O)[C@H](CC(=O)O)NC(=O)[C@H](CC(C)C)NC(=O)[C@H](Cc1ccc(O)cc1)NC(=O)[C@H](CCCCN)NC(=O)[C@H](CO)NC(=O)[C@H](Cc1ccc(O)cc1)NC(=O)[C@H](CC(=O)O)NC(=O)[C@H](CO)NC(=O)[C@@H](NC(=O)[C@H](Cc1ccccc1)NC(=O)[C@@H](NC(=O)CNC(=O)[C@H](Cc1c[nH]cn1)NC(=O)C(C)(C)NC(=O)CCc1c[nH]cn1)[C@@H](C)O)[C@@H](C)O)C(C)C)C(C)C)C(=O)N[C@@H](Cc1c[nH]c2ccccc12)C(=O)N[C@@H](CC(C)C)C(=O)N[C@@H](CC(C)C)C(=O)N[C@@H](CO)C(=O)N[C@H](C(=O)O)[C@@H](C)O)C(=O)O)C(=O)O)C(=O)O)C(=O)O` [Example 10, N^ϵ24-[(4S)-4-[[(4S)-4-[[(4S)-4-[[(4S)-4-acetamido-4-carboxybutanoyl]amino]-4-carboxybutanoyl]amino]-4-carboxybutanoyl]amino]-4-carboxybutanoyl]-[Imp1, Aib2, His3, Val16, Lys24, Leu27, Ser28]-Glucagon] (Desaminohistidyl-[Aib]HGTFTSDYSKYLDVRRAQDFVK([γGlu-γGlu-γGlu-γGlu-Ac])WLLST-OH), in series [1], the 50% inhibitory concentration (IC50) came to 0.5 nM. Also, in series [2], the recovery at 250 μM was 100%.

Usually IC50 stands for the concentration at which inhibition is half-maximal.
